How the values were obtained:
[1] = molecular target: PTRGER4 (EP4) (Homo sapiens (Human), UniProt P35408); experiment: hEP4 b-arrestin assay (PathHunter HEK 293 PTGER4 b-arrestin cells); type: cell-based; conditions: antagonistic activity on hEP4; mean where measured multiple times
Outline: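 Stably transfected HEK293 cells carrying EP4–ProLink and β-arrestin 2–EA (β-gal fragment complementation), pre-incubated with compound 15 min at 37 °C, then stimulated with PGE2 (20 nM final) for 120 min at 37 °C. Chemiluminescence read after 1 h detection reagent at room temperature; activity per concentration expressed as percent of DMSO control.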

[2] = molecular target: PTGER2 (EP2) (Homo sapiens (Human), UniProt P43116); experiment: hEP2 b-arrestin assay (PathHunter HEK 293 PTGER2 b-arrestin cells); type: cell-based; conditions: antagonistic activity on hEP2; mean where measured multiple times
Chain of PTGER2 (EP2) (P43116 whole entry, the tested form may be a part): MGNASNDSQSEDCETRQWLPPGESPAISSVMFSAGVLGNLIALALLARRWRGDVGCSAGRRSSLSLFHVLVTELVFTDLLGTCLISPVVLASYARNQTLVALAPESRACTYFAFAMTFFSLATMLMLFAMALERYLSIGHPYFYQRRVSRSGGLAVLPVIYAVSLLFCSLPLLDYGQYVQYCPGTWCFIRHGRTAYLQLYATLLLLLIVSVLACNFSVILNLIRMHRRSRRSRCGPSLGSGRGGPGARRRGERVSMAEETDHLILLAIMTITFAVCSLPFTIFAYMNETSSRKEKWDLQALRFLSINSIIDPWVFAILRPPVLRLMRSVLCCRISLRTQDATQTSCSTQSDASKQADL
Outline: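 HEK293 cells expressing ProLink-tagged EP2 and EA-fused β-arrestin 2 (enzyme fragment complementation) were seeded 24 h, pre-incubated with compound 15 min at 37 °C, then stimulated with 5 μM PGE2 (final) for 120 min.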

Chain of PTRGER4 (EP4) (P35408 whole entry, looked up, the tested form may be a part): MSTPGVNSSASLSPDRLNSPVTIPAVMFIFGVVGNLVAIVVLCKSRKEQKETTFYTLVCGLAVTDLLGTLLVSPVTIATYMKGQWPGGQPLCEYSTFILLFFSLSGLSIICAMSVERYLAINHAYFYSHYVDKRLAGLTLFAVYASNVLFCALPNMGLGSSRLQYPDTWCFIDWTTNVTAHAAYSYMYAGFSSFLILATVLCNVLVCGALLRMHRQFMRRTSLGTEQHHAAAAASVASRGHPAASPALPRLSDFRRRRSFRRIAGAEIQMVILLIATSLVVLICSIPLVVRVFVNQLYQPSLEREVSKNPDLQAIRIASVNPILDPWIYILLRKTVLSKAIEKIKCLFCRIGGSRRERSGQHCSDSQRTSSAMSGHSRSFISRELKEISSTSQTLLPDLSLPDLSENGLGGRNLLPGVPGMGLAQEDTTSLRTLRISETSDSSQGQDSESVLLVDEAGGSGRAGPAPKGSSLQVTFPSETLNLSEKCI

IC50 [1] [nM] | IC50 [2] [nM] | Structure (SMILES)
769 | 100 | COc1ncc(-c2cc(NCCn3c(C)cc4c(OC)ccc(F)c43)ncn2)s1 [compound 3]
629 | 5 | Cc1cc2ccccc2n1CCNc1cc(-c2cc(Cl)c(C(=O)O)s2)ncn1 [compound 5]
911 | 3 | CCc1cc(-c2cc(NCCn3c(C)cc4ccccc43)ncn2)sc1C(=O)O [compound 6]
556 | 98 | Cc1cc(F)cc2c1cc(C)n2CCNc1cc(-c2ccc3cn[nH]c3c2)ncn1 [compound 7, [2-(6-Fluoro-2,4-dimethyl-indol-1-yl)-ethyl]-[6-(1H-indazol-6-yl)-pyrimidin-4-yl]-amine]
333 | 9 | COc1cccc2c1cc(C)n2CCNc1cc(-c2ccc3[nH]cnc3c2)ncn1 [compound 8, [6-(1H-Benzoimidazol-5-yl)-pyrimidin-4-yl]-[2-(4-methoxy-2-methyl-indol-1-yl)-ethyl]-amine]
691 | 69 | Cc1cc(F)cc2c1cc(C)n2CCNc1cc(-c2ccc3cc[nH]c3c2)ncn1 [compound 10, [2-(6-Fluoro-2,4-dimethyl-indol-1-yl)-ethyl]-[6-(1H-indol-6-yl)-pyrimidin-4-yl]-amine]
124 | 20 | Cc1ccc(F)c2c1cc(C)n2CCNc1cc(-c2ccc3c(c2)CCN3)ncn1 [compound 11, [6-(2,3-Dihydro-1H-indol-5-yl)-pyrimidin-4-yl]-[2-(7-fluoro-2,4-dimethyl-indol-1-yl)-ethyl]-amine]
144 | 11 | COc1cccc2c1cc(C)n2CCNc1cc(-c2ccc3c(c2)CCN3)ncn1 [compound 12, [6-(2,3-Dihydro-1H-indol-5-yl)-pyrimidin-4-yl]-[2-(4-methoxy-2-methyl-indol-1-yl)-ethyl]-amine]
428 | 14 | COc1cccc2c1cc(C)n2CCNc1cc(-c2ccc(CO)c(C)c2)ncn1 [compound 13, (4-{6-[2-(4-Methoxy-2-methyl-indol-1-yl)-ethylamino]-pyrimidin-4-yl}-2-methyl-phenyl)-methanol]
82 | 4 | Cc1cc2c(Cl)ccc(F)c2n1CCNc1cc(-c2cc(Cl)c(C(=O)O)s2)ncn1 [compound 14, 3-Chloro-5-{6-[2-(4-chloro-7-fluoro-2-methyl-indol-1-yl)-ethylamino]-pyrimidin-4-yl}-thiophene-2-carboxylic acid]
542 | 62 | Cc1ccc(F)c2c1cc(C)n2CCNc1cc(-c2ccc(C(=O)O)cc2)ncn1 [compound 15, 4-{6-[2-(7-Fluoro-2,4-dimethyl-indol-1-yl)-ethylamino]-pyrimidin-4-yl}-benzoic acid]
202 | 9 | COc1cccc2c1cc(C)n2CCNc1cc(-c2ccc(CO)c(Cl)c2)ncn1 [compound 16, (2-Chloro-4-{6-[2-(4-methoxy-2-methyl-indol-1-yl)-ethylamino]-pyrimidin-4-yl}-phenyl)-methanol]
174 | 12 | COc1cccc2c1cc(C)n2CCNc1cc(-c2ccc(CO)c(F)c2)ncn1 [compound 17, (2-Fluoro-4-{6-[2-(4-methoxy-2-methyl-indol-1-yl)-ethylamino]-pyrimidin-4-yl}-phenyl)-methanol]
123 | 27 | Cc1ccc(F)c2c1cc(C)n2CCNc1cc(-c2cc(Cl)c(C(=O)O)s2)ncn1 [compound 18, 3-Chloro-5-{6-[2-(7-fluoro-2,4-dimethyl-indol-1-yl)-ethylamino]-pyrimidin-4-yl}-thiophene-2-carboxylic acid]
99 | 17 | Cc1cc(F)cc2c1cc(C)n2CCNc1cc(-c2cc(Cl)c(C(=O)O)s2)ncn1 [compound 19, 3-Chloro-5-{6-[2-(6-fluoro-2,4-dimethyl-indol-1-yl)-ethylamino]-pyrimidin-4-yl}-thiophene-2-carboxylic acid]
328 | 94 | Cc1ccc(F)c2c1cc(C)n2CCNc1cc(-c2ccc(CO)c(Cl)c2)ncn1 [compound 20]
287 | 42 | Cc1ccc(F)c2c1cc(C)n2CCNc1cc(-c2ccc(CO)c(F)c2)ncn1 [compound 21, (2-Fluoro-4-{6-[2-(7-fluoro-2,4-dimethyl-indol-1-yl)-ethylamino]-pyrimidin-4-yl}-phenyl)-methanol]
369 | 78 | Cc1cc(-c2cc(NCCn3c(C)cc4c(C)ccc(F)c43)ncn2)ccc1CO [compound 22]
143 | 3 | COc1cccc2c1cc(C)n2CCNc1cc(-c2cc(Cl)c(C(=O)O)s2)ncn1 [compound 23, 3-Chloro-5-{6-[2-(4-methoxy-2-methyl-indol-1-yl)-ethylamino]-pyrimidin-4-yl}-thiophene-2-carboxylic acid]

IC50 [1] [nM] | IC50 [2] [nM] | Structure (SMILES)
895 | 94 | COc1cccc2c1cc(C)n2CCNc1cc(-c2ccc(CN)c(F)c2)ncn1 [compound 24]
616 | 27 | Cc1ccc(F)c2c1cc(C)n2CCNc1cc(-c2ccc(C(N)=O)cc2)ncn1 [compound 25, 4-{6-[2-(7-Fluoro-2,4-dimethyl-indol-1-yl)-ethylamino]-pyrimidin-4-yl}-benzamide]
975 | 9 | CCc1cc(-c2cc(NCCn3c(C)cc4c(C)cccc43)ncn2)ccc1C(=O)O [compound 26, 4-{6-[2-(2,4-Dimethyl-indol-1-yl)-ethylamino]-pyrimidin-4-yl}-2-ethyl-benzoic acid]
90 | 10 | COc1ccc(F)c2c1cc(C)n2CCNc1cc(-c2ccc(CO)c(Cl)c2)ncn1 [compound 27, (2-Chloro-4-{6-[2-(7-fluoro-4-methoxy-2-methyl-indol-1-yl)-ethylamino]-pyrimidin-4-yl}-phenyl)-methanol]
249 | 17 | COc1ccc(F)c2c1cc(C)n2CCNc1cc(-c2ccc(CO)c(F)c2)ncn1 [compound 28, (2-Fluoro-4-{6-[2-(7-fluoro-4-methoxy-2-methyl-indol-1-yl)-ethylamino]-pyrimidin-4-yl}-phenyl)-methanol]
575 | 18 | Cc1ccc(F)c2c1cc(C)n2CCNc1cc(-c2ccc(C(=O)O)c(Cl)c2)ncn1 [compound 29, 2-Chloro-4-{6-[2-(7-fluoro-2,4-dimethyl-indol-1-yl)-ethylamino]-pyrimidin-4-yl}-benzoic acid]
243 | 34 | COc1cc(-c2cc(NCCn3c(C)cc4c(C)ccc(F)c43)ncn2)ccc1CO [compound 30, (4-{6-[2-(7-Fluoro-2,4-dimethyl-indol-1-yl)-ethylamino]-pyrimidin-4-yl}-2-methoxy-phenyl)-methanol]
543 | 24 | Cc1cc(-c2cc(NCCn3c(C)cc4c(C)ccc(F)c43)ncn2)ccc1C(=O)O [compound 31, 4-{6-[2-(7-Fluoro-2,4-dimethyl-indol-1-yl)-ethylamino]-pyrimidin-4-yl}-2-methyl-benzoic acid]
162 | 26 | COc1ccc(F)c2c1cc(C)n2CCNc1cc(-c2ccc(CO)c(C)c2)ncn1 [compound 32, (4-{6-[2-(7-Fluoro-4-methoxy-2-methyl-indol-1-yl)-ethylamino]-pyrimidin-4-yl}-2-methyl-phenyl)-methanol]
678 | 3 | CCSc1cc(-c2cc(NCCn3c(C)cc4ccccc43)ncn2)ccc1C(=O)O [compound 33, 2-Ethylsulfanyl-4-{6-[2-(2-methyl-indol-1-yl)-ethylamino]-pyrimidin-4-yl}-benzoic acid]
952 | 15 | COc1cc(-c2cc(NCCn3c(C)cc4c(C)cccc43)ncn2)ccc1C(=O)O [compound 35, 4-{6-[2-(2,4-Dimethyl-indol-1-yl)-ethylamino]-pyrimidin-4-yl}-2-methoxy-benzoic acid]
219 | 5 | COc1cc(-c2cc(NCCn3c(C)cc4c(OC)cccc43)ncn2)ccc1CO [compound 36, (2-Methoxy-4-{6-[2-(4-methoxy-2-methyl-indol-1-yl)-ethylamino]-pyrimidin-4-yl}-phenyl)-methanol]
436 | 34 | Cc1ccc(F)c2c1cc(C)n2CCNc1cc(-c2ccc(S(=O)(=O)O)cc2)ncn1 [compound 37, 4-{6-[2-(7-Fluoro-2,4-dimethyl-indol-1-yl)-ethylamino]-pyrimidin-4-yl}-benzenesulfonic acid]
39 | 5 | COc1cc(F)cc2c1cc(C)n2CCNc1cc(-c2cc(Cl)c(C(=O)O)s2)ncn1 [compound 38, 3-Chloro-5-{6-[2-(6-fluoro-4-methoxy-2-methyl-indol-1-yl)-ethylamino]-pyrimidin-4-yl}-thiophene-2-carboxylic acid]
515 | 19 | COc1cccc2c1cc(C)n2CCNc1cc(-c2ccc(NC(N)=O)cc2)ncn1 [compound 39, (4-{6-[2-(4-Methoxy-2-methyl-indol-1-yl)-ethylamino]-pyrimidin-4-yl}-phenyl)-urea]
392 | 86 | Cc1ccc(F)c2c1cc(C)n2CCNc1cc(-c2ccc(NC(N)=O)cc2)ncn1 [compound 40, (4-{6-[2-(7-Fluoro-2,4-dimethyl-indol-1-yl)-ethylamino]-pyrimidin-4-yl}-phenyl)-urea]
91 | 101 | Cc1ccc(F)c2c1cc(C)n2CCNc1cc(-c2ccc(C(=O)O)c(N)c2)ncn1 [compound 41]
494 | 21 | COc1ccc(F)c2c1cc(C)n2CCNc1cc(-c2ccc(C(N)=O)cc2)ncn1 [compound 42, 4-{6-[2-(7-Fluoro-4-methoxy-2-methyl-indol-1-yl)-ethylamino]-pyrimidin-4-yl}-benzamide]
